Counter-ions that a name gives are not always drawn.
How the values were obtained:
dopamine D2 receptor = dopamine D2 receptor (Homo sapiens, UniProt P14416); assay: Binding affinity for dopamine D2 receptor, 3H-raclopride as ligand (Seeman 1993)
Excerpt: As will be appreciated by those skilled in the art, Ki values depend on the method of measurement, pH, radiolabeling technique, tissue type, temperature and type of wash used.

rats [1] = assay: Catalepsy grid-test (motor side-effects); type: in vivo; settings: for motor-side-effects (catalepsy): sc, doses 1-40 mg/kg
Procedure: (§1) To document the fact that the compounds cross the blood brain barrier, occupancy at the dopamine D2 receptors using in-vivo occupancy measures was examined in rats. The test compound was injected subcutaneously followed 30 minutes later by an intravenous injection of ^3H-raclopride. The animals were sacrificed 1 hour after drug administration. In animals combining occupancy and catalepsy, rats were tested for catalepsy 10 minutes before sacrifice. Animals were sacrificed by decapitation. Striata and cerebella were rapidly dissected, processed and analyzed as described by Kapur et al. (2000b) Compounds which crossed the blood brain barrier and gave predictable dose-response relationships were then tested to see if they gave catalepsy. Catalepsy is the time-honoured animal model to predict the propensity of compounds to give rise to extrapyramidal side-effects in humans. Catalepsy was measured using a grid-test by a rater blind to the treatment-assignment. The time that animals remained immobile was used as an index of catalepsy by transforming raw-scores into catalepsy scores, with a score of 1 as questionable catalepsy and scores of 2-5 reflecting severity of catalepsy (Ahlenius S et al. 1986).

rats [2] = assay: Conditioned avoidance response (CAR), two-way active avoidance shuttlebox; type: in vivo
Procedure: Therefore the new compounds were tested for activity in this model. For conditioned avoidance-response, rats were trained and tested in a computer assisted two-way active avoidance (shuttlebox), with an 80 dB white-noise as a conditioned stimulus, followed ten seconds later by a 0.6 mA shock as the unconditioned stimulus. Details of the procedure have been described elsewhere (Wadenberg M L et al. 2000).

FOS protein = assay: FOS immunohistochemistry; type: in vivo; settings: rats, two hours after injection; for FOS protein induction in the nucleus accumbens: shell of nucleus accumbens
Procedure: In particular, all antipsychotics induce FOS in the nucleus accumbens regions while those likely to give rise to motor side-effects also induce FOS in the dorsolateral striatum (Robertson et al. 1994). For examining the distribution of FOS protein by the test compound, the test compound was injected into rats and two hours later, the animals were deeply anaesthetized with sodium phenobarbitol (100 mg/kg i.p.) and perfused transcardially, the brains removed and post-fixed. Immunostaining was performed on free-floating forty-micron sections with a rabbit-raised polyclonal primary anti-FOS antiserum (diluted 1:250 and incubated 48 hours at 4° C.) (4-17 aminoacids of human Fos; Oncogene Research Products, Cambridge, Mass., USA). Exposure to a biotinylated goat anti-rabbit secondary antibody (1:600, Vector Laboratories, Burlingame, Calif., USA) followed by incubation with horseradish peroxidase avidin-biotin complex (Vector Laboratories, Vector Laboratories, Burlingame, Calif., USA) was used to visualize the FOS staining. Fos-immunoreactive nuclei were counted within 400×400 μm grid at a magnification of 100× in the shell of nucleus accumbens and dorsolateral striatum.

dopamine D2 receptors = biological target: T1, dopamine D2 receptors (Rattus norvegicus, UniProt P61169); assay: In-vivo D2 receptor occupancy with 3H-raclopride; settings: rats; for ED50: rat, sc in acidified saline; for D2 occupancy: dose 1-40 mg/kg/sc in acidified saline, sacrifice 1 hour after drug
T1 construct: Striata and cerebella were rapidly dissected, processed and analyzed as described by Kapur et al. (2000b); from tissue; host or cells: rat brain in vivo (striatum; cerebellum also dissected)
T1 sequence (P61169 whole entry): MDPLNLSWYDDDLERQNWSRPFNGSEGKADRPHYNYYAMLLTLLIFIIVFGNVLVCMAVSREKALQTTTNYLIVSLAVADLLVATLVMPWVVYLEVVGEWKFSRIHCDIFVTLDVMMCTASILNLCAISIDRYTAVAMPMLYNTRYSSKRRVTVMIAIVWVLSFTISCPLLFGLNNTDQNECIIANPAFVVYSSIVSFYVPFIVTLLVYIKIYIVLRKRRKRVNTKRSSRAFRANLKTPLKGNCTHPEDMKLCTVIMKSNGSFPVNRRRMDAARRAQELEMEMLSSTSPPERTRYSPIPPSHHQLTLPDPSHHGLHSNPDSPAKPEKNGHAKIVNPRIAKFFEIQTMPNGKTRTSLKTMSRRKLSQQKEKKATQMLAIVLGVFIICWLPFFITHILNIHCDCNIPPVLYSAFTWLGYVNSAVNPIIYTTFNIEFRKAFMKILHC
Procedure: as §1

dopamine D2 receptor, sequence (P14416 whole entry, species assumed): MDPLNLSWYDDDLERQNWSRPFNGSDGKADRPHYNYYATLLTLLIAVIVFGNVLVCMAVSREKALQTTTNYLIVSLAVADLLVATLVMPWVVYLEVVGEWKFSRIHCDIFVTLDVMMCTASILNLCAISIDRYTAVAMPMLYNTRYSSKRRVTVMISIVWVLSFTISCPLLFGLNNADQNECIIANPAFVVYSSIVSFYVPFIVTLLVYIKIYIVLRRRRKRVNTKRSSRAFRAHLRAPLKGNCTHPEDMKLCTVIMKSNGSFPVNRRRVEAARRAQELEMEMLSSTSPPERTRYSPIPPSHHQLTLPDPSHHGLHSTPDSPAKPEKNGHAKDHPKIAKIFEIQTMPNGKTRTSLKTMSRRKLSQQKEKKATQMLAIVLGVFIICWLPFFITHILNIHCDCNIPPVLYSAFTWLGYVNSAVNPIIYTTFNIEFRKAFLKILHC

## CCCCN1CCN(C2=Nc3cc(Cl)ccc3Oc3ccccc32)CC1 [Example 10, 8-Chloro-11-(4-butylpiperazin-1-yl)-dibenzo[b,f][1,4]oxazepine]
other
  melting point: 97 to 98 °C
Dopamine D2 receptor
  Ki: 28 nM

## CCCN1CCN(C2=Nc3cc(Cl)ccc3Oc3ccccc32)CC1 [Example 8, 8-Chloro-11-(4-propylpiperazin-1-yl)-dibenzo[b,f][1,4]oxazepine]
other
  melting point: 90 to 91 °C
Dopamine D2 receptor
  Ki: 23 nM

## CCCCN1CCN(C2=Nc3cc(C(F)(F)F)ccc3Oc3ccccc32)CC1 (as salt: HCl) [Example 5, 8-Trifluoromethyl-11-(4-butylpiperazin-1-yl)-dibenzo[b,f][1,4]oxazepine.HCl]
other
  melting point: 240 °C (dec.)

## CN1CCN(C2=Nc3cc(Cl)ccc3Nc3ccccc32)CC1 [Clozapine, reference compound]
Rats [1]; doses up to 20 mg/kg/sc
  catalepsy: did not give rise to catalepsy

## CC(C)N1CCN(C2=Nc3cc(Cl)ccc3Oc3ccccc32)CC1 [Example 9, 8-Chloro-11-(4-isopropylpiperazin-1-yl)-dibenzo[b,f][1,4]oxazepine]
other
  melting point: 55 to 56 °C
Dopamine D2 receptor
  Ki: 150 nM

## O=C(CCCN1CCC(O)(c2ccc(Cl)cc2)CC1)c1ccc(F)cc1 [haloperidol, reference compound]
Rats [2]; >0.05 mg/kg/sc, without catalepsy or escape deficits
  inhibition of avoidance: robust inhibition of avoidance
FOS protein
  FOS protein induction in the dorsolateral striatum: resulted in FOS in the dorsolateral striatum
  FOS protein induction in the nucleus accumbens: robust FOS induction

## CCN1CCN(C2=Nc3cc(C(F)(F)F)ccc3Oc3ccccc32)CC1 [Example 1, 8-Trifluoromethyl-11-(4-ethylpiperazin-1-yl)-dibenzo[b,f][1,4]oxazepine]
other
  melting point: 76 to 77 °C
Dopamine D2 receptor
  Ki: 258 nM

## CCN1CCN(C2=Nc3cc(Cl)ccc3Oc3ccccc32)CC1 [Example 6, 8-Chloro-11-(4-ethylpiperazin-1-yl)-dibenzo[b,F][1,4]oxazepine]
Dopamine D2 receptors
  ED50: ~5 mg/kg
  D2 occupancy: 5-81%
Dopamine D2 receptor
  Ki: 42 nM
Rats [2]; Rattus norvegicus, 10 mg/kg/sc
  inhibition at 10 mg/kg: > 50%
Rats [1]
  motor-side-effects (catalepsy): No animals showed any evidence of motor-side-effects
FOS protein
  FOS protein induction in the dorsolateral striatum: no induction
  FOS protein induction in the nucleus accumbens: robust induction

## CC(C)N1CCN(C2=Nc3cc(C(F)(F)F)ccc3Oc3ccccc32)CC1 (as salt: HCl) [Example 4, 8-Trifluoromethyl-11-(4-isopropylpiperazin-1-yl)-dibenzo[b,f][1,4]oxazepine.HCl]
other
  melting point: 270 °C (dec.)

## CC(C)N1CCN(C2=Nc3cc(Cl)ccc3Sc3ccccc32)CC1 [Example 15, 8-Chloro-11-(4-isopropylpiperazin-1-yl)-dibenzo[b,f][1,4]thiazepine.HCl]
Dopamine D2 receptor
  Ki: 58 nM

## CC(C)N1CCN(C2=Nc3cc(C(F)(F)F)ccc3Oc3ccccc32)CC1 [Example 4, 8-Trifluoromethyl-11-(4-isopropylpiperazin-1-yl)-dibenzo[b,f][1,4]oxazepine.HCl]
Dopamine D2 receptor
  Ki: 215 nM

## OCCN1CCN(C2=Nc3cc(Cl)ccc3Sc3ccccc32)CC1 [Example 13, 8-Chloro-11-(4-(2′-hydroxyethyl)piperazin-1-yl)-dibenzo[b,f][1,4]thiazepine]
other
  melting point: 110 to 111 °C
Dopamine D2 receptor
  Ki: 88 nM

## OCCN1CCN(C2=Nc3cc(Cl)ccc3Oc3ccccc32)CC1 [Example 7, 8-Chloro-11-(4-(2′-hydroxyethyl)piperazin-1-yl)-dibenzo[b,f][1,4]oxazepine]
other
  melting point: 149 to 150 °C
Dopamine D2 receptors
  ED50: 10 mg/kg
  D2 occupancy: 22-75%
Dopamine D2 receptor
  Ki: 108 nM
Rats [2]; Rattus norvegicus, 20 mg/kg/sc
  inhibition at 20 mg/kg: > 50%
Rats [1]
  motor-side-effects (catalepsy): No animals showed any evidence of motor-side-effects

## CCCCN1CCN(C2=Nc3cc(C(F)(F)F)ccc3Oc3ccccc32)CC1 [Example 5, 8-Trifluoromethyl-11-(4-butylpiperazin-1-yl)-dibenzo[b,f][1,4]oxazepine.HCl]
Dopamine D2 receptor
  Ki: 250 nM

## OCCN1CCN(C2=Nc3cc(C(F)(F)F)ccc3Oc3ccccc32)CC1 [Example 2, 8-Trifluoromethyl-11-(4-(2′-hydroxyethyl)piperazin-1-yl)-dibenzo[b,f][1,4]oxazepine]
other
  melting point: 110 to 111 °C
Dopamine D2 receptor
  Ki: 414 nM

## CCN1CCN(C2=Nc3cc(Cl)ccc3Sc3ccccc32)CC1 [Example 12, 8-Chloro-11-(4-ethylpiperazin-1-yl)-dibenzo[b,f][1,4]thiazepine]
other
  melting point: 100 to 101 °C
Dopamine D2 receptor
  Ki: 63 nM

Reference: US6890919B2, “Atypical antipsychotic agents having low affinity for the D2 receptor” (priority 2001, dated 2005)
